The Emax is the size of the effect at its maximum, as opposed to the concentration needed.

For the test, the system named is FD (familial dysautomonia) IKBKAP minigene, exon 20 inclusion, in HEK293T cells. In words: Primary splicing assay (FD IKBKAP minigene, Firefly/Renilla luciferase reporter in HEK293T). As to conditions: for Emax / EC (maximum kinetin efficacy): Homo sapiens, HEK-293T; for EC (maximum kinetin efficacy): HEK293T, read-out: ECk (compound concentration at which the maximum kinetin efficacy (200 μM) is reached). Format: cell-based, human. Background: Reporter assays use an easily measured gene product as a stand-in for the process of interest.

[1] abbreviates: max efficacy in Primary Assay, Firefly/Renilla ratio, kinetin and DMSO as positive and negative controls, 24 hours of treatment, read-out: Emax (%).
The mark [2] stands for this setting: Firefly/Renilla ratio, 24 hours of treatment.
Setting [3] is: max efficacy in Primary Assay, value flagged footnote a: Firefly inhibitor, read-out: Emax (%).
The mark [4] stands for this setting: max efficacy, value marked (RT-PCR), footnote a: Firefly inhibitor, read-out: Emax (%) (RT-PCR).

Like-named read-outs stand apart in the source and are kept apart here.

Regarding `OCCn1cc(F)c2c(NCc3ccco3)nc(Cl)nc21` [(111)], for the setting “max efficacy, Firefly only, footnote c: Renilla interference/Firefly only, read-out: Emax (%) Firefly only”, the Emax came to 191%. Besides, the “ECk, Firefly only” value (Renilla interference/Firefly only (footnote c)) was 9.3 µM⁻¹.
As to `O=C(c1c[nH]c2nc(Cl)nc(NCc3ccco3)c12)N1CCCC1` [(168)], the maximal effect (Emax) under setting [1] was 54%.
Take `FC(F)(F)COc1nc2c(NCc3ccncn3)nc(Cl)nc2[nH]1` [(331)]: under setting [2], the EC (maximum kinetin efficacy) worked out at 0.69 µM. For the same compound, the Emax under setting [1] amounted to 209%.
The matching figures for `CNC(=O)c1nc2c(NCc3ccncc3)nc(Cl)nc2[nH]1` [(250)]: 62.8 µM and 63%.
Turning to `N#Cc1c[nH]c2nc(Cl)nc(NCc3nccs3)c12` [(148)], the Emax under setting [1] amounted to 62%.
Same read-out and setting: the result for `CCCOc1nc2nc(Cl)nc(NCc3ccncn3)c2n1C` [(337)] reads 23%.
For the compound `OCCNc1nc2c(NCc3ccco3)nc(Cl)nc2[nH]1` [(199)], the Emax under setting [1] turned out to be 22%.
Still for that read-out and setting: the result for `Fc1ccc(CCNc2ncnc3[nH]cnc23)cc1` [(442)] reads 58.6%; that for `Fc1nc(NCc2nccs2)c2cc[nH]c2n1` [(379)], 95%.
As for `OC1CN(c2nc3c(NCc4ccco4)nc(Cl)nc3[nH]2)C1` [(104)], under setting [2], the EC (maximum kinetin efficacy) amounted to 12 µM. The Emax under setting [1] stood at 246%.
For the compound `CCCOc1nc2nc(Cl)nc(NCc3ccncc3)c2n1C` [(336)], under setting [1], the Emax stood at 20%.
On the same count and under the same terms, the same measure for `Clc1nc(NCc2ccno2)c2cc[nH]c2n1` [(178)]: 76%; for `FC(F)(F)c1ccccc1CNc1ncnc2[nH]cnc12` [(23)]: 34%.
Take `Cn1cnc2nc(Cl)nc(NCc3ccco3)c21` [(314)]: under setting [2], the EC (maximum kinetin efficacy) was 2.31 µM. In addition, under setting [1], the Emax was 198%.
In the same order, the values of `OCCn1cc(F)c2c(NCc3nccs3)nc(Cl)nc21` [(130)] are 8.9 µM and 201%.
In the same order, the values of `CNc1nc2c(NCc3nccs3)nc(Cl)nc2[nH]1` [(245)] are 15.4 µM and 122%.
Regarding `Clc1nc(NCc2ccncc2)c2nc(C3CCC3)[nH]c2n1` [(234)], under setting [2], the EC (maximum kinetin efficacy) was 19.9 µM. For the same compound, under setting [1], the Emax turned out to be 94%.
The matching figures for `OCCn1ncc2c(NCc3ccncc3)nc(Cl)nc21` [(218)]: 21 µM and 154%.
Regarding `FC(F)(F)c1cccc(Nc2ncnc3[nH]cnc23)c1` [(13)], the Emax under setting [1] came to 16%.
For the compound `CC(C)(C)OC(=O)N1Cc2nc(Cl)nc(NCc3ccco3)c2C1` [(508)], under setting [1], the Emax is 80%.
Still for that read-out and setting: the same measure for `N#Cc1nc(NCc2ccco2)c2nc[nH]c2n1` [(47)]: 99%.
As for `COCCOc1nc2c(NCc3nccs3)nc(Cl)nc2[nH]1` [(328)], the EC (maximum kinetin efficacy) under setting [2] came out at 1.79 µM. Also, the Emax under setting [1] is 184%.
In the same order, the values of `Brc1nc(NCc2ccco2)c2nc[nH]c2n1` [(266)] are 8.52 µM and 106%.
As to `Clc1nc(NCc2ccncc2)c2nc(OC3COC3)[nH]c2n1` [(272)], the EC (maximum kinetin efficacy) under setting [2] came to 2.6 µM. Also, the Emax under setting [1] was 155%.
For the compound `O=C1CCCN1CCOc1nc2c(NCc3ccco3)nc(Cl)nc2[nH]1` [(396)], the Emax under setting [1] came out at 38.7%.
Turning to `Clc1nc(NCc2ccco2)c2nc(OCCC3CC3)[nH]c2n1` [(489)], under setting [2], the EC (maximum kinetin efficacy) came to 1.21 µM. Under setting [1], the maximal response (Emax) stood at 131%.
With `COc1cc(CNc2nc(Cl)nc3[nH]cnc23)ccn1` [(241)], the Emax under setting [1] was 13%.
The same measure, in the same setting: the result for `CC(C)c1nc(NCc2ccco2)c2nc[nH]c2n1` [(67)] reads 13%.
Consider `Fc1cccc(CNc2ncnc3[nH]cnc23)c1` [(12)], for which the Emax under setting [3] was 54%.
On to `Clc1nc(NCc2nccs2)c2cn[nH]c2n1` [(222)], for which, under setting [2], the EC (maximum kinetin efficacy) worked out at 8.99 µM. Also, the Emax under setting [1] worked out at 146%.
In the same order, the values of `Clc1nc(NCc2ccncc2)c2nc[nH]c2n1` [(134)] are 6.25 µM and 174%.
`OCCCn1ccc2c(NCc3ccco3)nc(Cl)nc21` [(108)]: the Emax under setting [4] was 172%.
As for `Clc1nc(NCc2ccco2)c2nc(OC[C@@H]3CCOC3)[nH]c2n1` [(472)], the EC (maximum kinetin efficacy) under setting [2] is 1.16 µM. In addition, the Emax under setting [1] amounted to 151%.
As for `Clc1nc(NCc2cccnc2)c2cc[nH]c2n1` [(355)], the Emax under setting [1] was 26%.
On to `Clc1nc(NCc2nccs2)c2nc(OC3COC3)[nH]c2n1` [(265)], for which the EC (maximum kinetin efficacy) under setting [2] was 7.33 µM. For the same compound, under setting [1], the Emax is 119%.
As to `FC(F)COc1nc2c(NCc3ccco3)nc(Cl)nc2[nH]1` [(384)], the EC (maximum kinetin efficacy) under setting [2] came to 1.08 µM. Also, the Emax under setting [1] came out at 152%.
In the case of `COCc1cc2c(NCc3ccco3)nc(Cl)nc2[nH]1` [(166)], the Emax under setting [1] was determined as 80%.
In the case of `Clc1nc(NCc2ccnnc2)c2nc[nH]c2n1` [(179)], the Emax under setting [1] was determined as 49%.
For `Clc1nc(NCc2ccncc2)c2ncsc2n1` [(256)], the EC (maximum kinetin efficacy) under setting [2] is 17.4 µM. Moreover, under setting [1], the Emax is 129%.
As for `Cc1cc(CNc2ncnc3[nH]cnc23)on1` [(8)], the Emax under setting [1] worked out at 25%.
As to `FCCn1ccc2c(NCc3ccncn3)nc(Cl)nc21` [(191)], the EC (maximum kinetin efficacy) under setting [2] turned out to be 5.92 µM. The Emax under setting [1] was 231%.
As to `Clc1nc(NCc2ccco2)c2ncn(Cc3ccncc3)c2n1` [(72)], under setting [1], the Emax came out at 39%.
`Clc1nc(NCc2ccccn2)c2cc[nH]c2n1` [(350)]: the Emax under setting [1] was 49.5%.
On the same count and under the same terms, the result for `COc1nc(NCc2ccco2)c2nc[nH]c2n1` [(36)] reads 18%.
With `Clc1nc(NCc2ccncc2)c2c(Cl)c[nH]c2n1` [(207)], the EC (maximum kinetin efficacy) under setting [2] worked out at 75.8 µM. Further, the Emax under setting [1] was found to be 109%.
With `CC(=O)NCCn1ccc2c(NCc3ccco3)nc(Cl)nc21` [(203)], the Emax under setting [3] was determined as 27%.
As to `Fc1nc(NCc2ccncc2)c2cc[nH]c2n1` [(380)], the EC (maximum kinetin efficacy) under setting [2] was 4.38 µM. Also, the Emax under setting [1] stood at 108%.
Consider `FC(F)(F)COc1nc2c(NCc3ccncc3)nc(Cl)nc2[nH]1` [(299)], for which, under setting [2], the EC (maximum kinetin efficacy) was 1.3 µM. Moreover, the Emax under setting [1] came out at 216%.
`Cc1ccoc1CNc1ncnc2[nH]cnc12` [(54)]: under setting [1], the Emax was 13%.
On the same count and under the same terms, the same measure for `Clc1nc(NCc2ccco2)c2nc(Cc3ccncc3)[nH]c2n1` [(99)]: 47%.
In the case of `Clc1nc(NCc2ccncn2)c2cn[nH]c2n1` [(220)], the EC (maximum kinetin efficacy) under setting [2] came to 8.62 µM. For the same compound, the Emax under setting [1] worked out at 153%.
Turning to `CC(C)COc1nc2c(NCc3ccco3)nc(Cl)nc2[nH]1` [(477)], the EC (maximum kinetin efficacy) under setting [2] worked out at 2.28 µM. For the same compound, the Emax under setting [1] was determined as 108%.
Take `OCCn1ccc2c(NCc3ccco3)ncnc21` [(74)]: under setting [1], the Emax turned out to be 64%.
Regarding `CCCOc1nc2c(NCc3cscn3)nc(Cl)nc2[nH]1` [(389)], under setting [2], the EC (maximum kinetin efficacy) came to 0.73 µM. Besides, under setting [1], the Emax was found to be 211%.
Take `COc1ccc(C(=O)Nc2ncnc3[nH]cnc23)cc1` [(441)]: the Emax under setting [1] amounted to 42.8%.
Regarding `Clc1nc(NCc2ccncn2)c2c(Cl)c[nH]c2n1` [(210)], the EC (maximum kinetin efficacy) under setting [2] was found to be 69.2 µM. Under setting [1], the Emax stood at 104%.
The matching figures for `[N-]=[N+]=Nc1nc2c(NCc3ccco3)nc(Cl)nc2[nH]1` [(133)]: 11.8 µM and 143%.
As for `FC(F)(F)c1nc(NCc2ccco2)c2nc[nH]c2n1` [(44)], under setting [1], the Emax amounted to 19%.
The same measure, in the same setting: the result for `Fc1nc(NCc2ccncc2)c2nc[nH]c2n1` [(371)] reads 82%.
Turning to `Clc1nc(NCc2nccs2)c2nc[nH]c2n1` [(131)], the EC (maximum kinetin efficacy) under setting [2] was determined as 7 µM. Moreover, the Emax under setting [1] is 190%.
The matching figures for `Fc1c[nH]c2nc(Cl)nc(NCc3nccs3)c12` [(116)]: 31.8 µM and 112%.
Take `Clc1nc(NCc2ccco2)c2ncn(Cc3ccccn3)c2n1` [(79)]: the Emax under setting [1] is 43%.
As to `OCCOc1nc2c(NCc3ccncn3)nc(Cl)nc2[nH]1` [(309)], under setting [2], the EC (maximum kinetin efficacy) worked out at 2.08 µM. For the same compound, the Emax under setting [1] came to 194%.
In the case of `CN(C)C(=O)c1cc2c(NCc3ccco3)nc(Cl)nc2[nH]1` [(195)], the Emax under setting [1] is 81%.
For the compound `Clc1nc(NCc2ccco2)c2[nH]ccc2n1` [(57)], under setting [2], the EC (maximum kinetin efficacy) was 31.2 µM.
In the case of `Clc1nc(NCc2ccno2)c2nc[nH]c2n1` [(175)], the Emax under setting [1] stood at 29%.
The same measure, in the same setting: the result for `COc1cccc(Nc2nc(Cl)nc3[nH]cnc23)c1` [(383)] reads 30.3%.
With `Clc1nc(NCc2nccs2)c2nc(OC3CCC3)[nH]c2n1` [(289)], under setting [2], the EC (maximum kinetin efficacy) was 0.87 µM. Also, under setting [1], the Emax is 128%.
With `CC(C)(C)COc1nc2c(NCc3ccco3)nc(Cl)nc2[nH]1` [(478)], the Emax under setting [1] turned out to be 84.1%.
Regarding `OC[C@H]1O[C@@H](n2cnc3c(NCc4ccco4)ncnc32)[C@H](O)[C@@H]1O` [(463)], the Emax under setting [1] worked out at 90%.
Consider `CCCOc1nc2c(NCc3ccco3)nc(Cl)nc2[nH]1` [(292)], for which the EC (maximum kinetin efficacy) under setting [2] stood at 0.24 µM. For the same compound, under setting [1], the Emax turned out to be 312%.
Regarding `NC(=O)c1nc2c(NCc3ccncc3)nc(Cl)nc2[nH]1` [(242)], the Emax under setting [1] came out at 31%.
As to `Clc1nc(NCc2ccncc2)c2nc(OCC3CCC3)[nH]c2n1` [(307)], under setting [2], the EC (maximum kinetin efficacy) was 0.21 µM. For the same compound, the Emax under setting [1] was determined as 292%.
On to `Cc1ccccc1CCNc1ncnc2[nH]cnc12` [(32)], for which the EC (maximum kinetin efficacy) under setting [2] is 60 µM.
Consider `Clc1nc(NCc2cccs2)c2[nH]cnc2n1` [(456)], for which, under setting [1], the Emax was 52.3%.
On the same count and under the same terms, the same measure for `CNC(=O)Cn1ccc2c(NCc3ccco3)nc(Cl)nc21` [(161)]: 65%.
In the case of `c1coc(CNc2ccnc3[nH]cnc23)c1` [(48)], the EC (maximum kinetin efficacy) under setting [2] was 72.8 µM.
With `c1cc(CNc2ncnc3[nH]cnc23)ncn1` [(68)], the Emax under setting [1] worked out at 62%.
`O[C@@H]1C=C[C@H](n2ccc3c(NCc4ccco4)nc(Cl)nc32)C1` [(139)]: under setting [4], the maximal response (Emax) was found to be 52.2%.
